Measurements as given in patent USRE39088E1, “Amide compounds and use of the same” (Japan Tobacco, Inc., priority 1995, dated 2006).
Counter-ions that a name gives are not always drawn.

system: IL-8; test: Suppression of production of inflammatory cytokines: IL-8 in LPS-stimulated human peripheral blood monocytes (ELISA); format: cell-based; conditions: Homo sapiens, Monocyte, 20 h, supernatant 20 hours after LPS
Procedure: Suppression of production of inflammatory cytokines
Thirty ml of human peripheral blood added with heparin was placed on Ficol-Paque (15 ml), and centrifuged at 400 G for 40 minutes at room temperature. The obtained monocyte fraction layers were collected and washed three times with E-MEM medium. The cells were adjusted to a final concentration of 0.5×10^5 cells/800 μl with RPMI-1640 medium containing 5% bovine fetal serum (2-mercaptoethanol), and seeded in a 24 well plant by 800 μl. A test sample (100 μl) was added and 100 μl of lipopolysarcharide (LPS, 100 μg/ml) was added one hour later. The supernatant was taken at 20 hours after stimulation with LPS, and amounts of various cytokines were determined using an ELISA kit.

SMILES | IC50
CCOC(=O)C(Cc1ccccc1)NC(=O)c1cc(Cl)c(OCCCN2CCNCC2)c(Cl)c1O (stereo not shown) [Example 67] | 0.05 µM
CCOC(=O)C(Cc1ccccc1)NC(=O)c1cc(Cl)c(OCCC2CCN(C)CC2)c(Cl)c1O (stereo not shown) [Example 70] | 0.006 µM
CCOC(=O)C(Cc1ccccc1)NC(=O)c1cc(Cl)c(OCCN2CCNCC2)c(Cl)c1O (stereo not shown) [Example 64] | 0.05 µM
Cc1noc([C@H](Cc2ccccc2)NC(=O)c2cc(Cl)c(OCCCCN)c(Cl)c2O)n1 [Example 144, N-[4-(4-Aminobutoxy)-3,5-dichloro-2-hydroxybenzoyl]-1-(3-methyl-1,2,4-oxadizaol-5-yl)-2-phenylethylamine hydrochloride] | 29 µM
CNCCCCCc1ccc(C(=O)N[C@@H](Cc2ccccc2)C(=O)OC)c(O)c1 [Example 89] | 0.6 µM
CC(OC(=O)[C@H](Cc1ccccc1)NC(=O)c1cc(Cl)c(OCCCCN)c(Cl)c1O)N1CCNCC1 (stereo partly shown) [Example 56] | 4 µM
CCOC(=O)C(Cc1ccccc1)NC(=O)c1cc(Cl)c(OCCCCN(C)C)cc1O (stereo not shown) [Example 72] | 0.1 µM
CCOC(=O)C(Cc1ccccc1)NC(=O)c1cc(Cl)c(CCCC2CCN(C)CC2)c(Cl)c1O (stereo not shown) [Example 100] | 0.001 µM
NCCCCOc1c(Cl)cc(C(=O)N[C@@H](Cc2ccccc2)C(N)=O)c(O)c1Cl [Example 139] | 4 µM
COC(=O)[C@H](Cc1ccccc1)NC(=O)c1cc(Cl)c(OCCN2CCN(C)C(C)C2)c(Cl)c1O (stereo partly shown) [Example 63] | 0.1 µM
COC(=O)[C@H](Cc1ccccc1)NC(=O)c1cc(Cl)c(OCCN2CCNC(C)C2)c(Cl)c1OC(C)=O (stereo partly shown) [Example 122] | < 0.01 µM
CCOC(=O)[C@H](Cc1ccccc1)NC(=O)c1ccc2oc(SCCCNC)nc2c1 [Example 152, (2S)-2-[2-(3-Methylaminopropylsulfanyl)benzoxazole-5-carbonyl-amino]-3-phenylpropionic acid ethyl ester hydrochloride] | 7 µM
NCCCCOc1c(Cl)cc(C(=O)N[C@@H](Cc2ccccc2)C(=O)Nc2ccccn2)c(O)c1Cl [Example 142] | 0.4 µM
COC(=O)[C@H](Cc1ccccc1)NC(=O)c1cc2cccc(OCCCCN)c2cc1O [Example 146, (2S)-3-Phenyl-2-[5-(4-aminobutoxy)-3-hydroxy-2-naphthoylamino]-propionic acid methyl ester hydrochloride] | 5 µM
CNCCCCOc1c(Cl)cc(C(=O)N[C@@H](Cc2ccccc2)C(=O)OCCN(C(C)C)C(C)C)c(O)c1Cl [Example 85] | 0.07 µM
CCOC(=O)C(Cc1ccccc1)NC(=O)c1cc(Cl)c(CCCN2CCNCC2)c(Cl)c1O (stereo not shown) [Example 102] | 0.002 µM
CNCCCCOc1c(Cl)cc(C(=O)N[C@@H](Cc2ccccc2)C(=O)OCC(C)C)c(O)c1Cl [Example 29] | < 0.01 µM
CN(C)CCCCCc1c(Cl)cc(C(=O)N[C@@H](Cc2ccccc2)C(=O)O)c(O)c1Cl [Example 133] | 0.2 µM
CCOC(=O)C(Cc1ccccc1)NC(=O)c1cc(Br)c(OCCCCN)cc1O (stereo not shown) [Example 74] | 0.07 µM
CN(C)CCCCOc1c(Cl)cc(C(=O)N[C@@H](Cc2ccccc2)C(=O)OCc2ccccc2)c(O)c1Cl [Example 55] | < 0.01 µM
NCCCCOc1c(Cl)cc(C(=O)N[C@@H](Cc2ccccc2)C(=O)OC2C3CC4CC(C3)CC2C4)c(O)c1Cl (stereo partly shown) [Example 49] | 0.02 µM
CNCCCCOc1c(Cl)cc(C(=O)N[C@@H](Cc2ccccc2)C(=O)OC)c(OC(=O)COC(C)=O)c1Cl [Example 110] | < 0.01 µM

same assay, conditions: supernatant 20 hours after LPS

SMILES | IC50
CNCCCCOc1c(Cl)cc(C(=O)N[C@@H](Cc2ccccc2)C(=O)NO)c(O)c1Cl [Example 143, N-[3,5-Dichloro-2-hydroxy-4-(4-methylaminobutoxy)benzoyl]-L-phenylalanylhydroxyamide] | 3 µM

same assay, conditions: supernatant 20 hours after LPS, listed as Example No. 88, hydrochloride

SMILES | IC50
CNCCCCc1ccc(C(=O)N[C@@H](Cc2ccccc2)C(=O)OC)c(O)c1 [Example 88, N-[2-Hydroxy-4-(4-methylaminobutyl)benzoyl]-L-phenylalanine methyl ester hydrochloride] | 3 µM

same assay, conditions: supernatant 20 hours after LPS, listed as Example No. 90

SMILES | IC50
CNCCCCc1ccc(C(=O)N[C@@H](Cc2ccccc2)C(=O)OC)c(O)c1 [Example 90] | 0.6 µM
